Assay results from patent US9469615B2, “Quinoxalines and AZA-quinoxalines as CRTH2 receptor modulators” (Merck Sharp & Dohme Corp., priority 2010, dated 2016).

molecular target: T1, hCRTH2 (Homo sapiens, UniProt Q9Y5Y4); experiment: Radioligand binding assay ([3H]PGD2 competition, HEK-hCRTH2 membranes); conditions: [3H]PGD2 binding, rated A-E (Table A)
T1 construct: expressed in transfected cells; host or cells: HEK (human embryonic kidney) cells expressing hCRTH2; membrane preparation
T1 sequence (Q9Y5Y4 1-395): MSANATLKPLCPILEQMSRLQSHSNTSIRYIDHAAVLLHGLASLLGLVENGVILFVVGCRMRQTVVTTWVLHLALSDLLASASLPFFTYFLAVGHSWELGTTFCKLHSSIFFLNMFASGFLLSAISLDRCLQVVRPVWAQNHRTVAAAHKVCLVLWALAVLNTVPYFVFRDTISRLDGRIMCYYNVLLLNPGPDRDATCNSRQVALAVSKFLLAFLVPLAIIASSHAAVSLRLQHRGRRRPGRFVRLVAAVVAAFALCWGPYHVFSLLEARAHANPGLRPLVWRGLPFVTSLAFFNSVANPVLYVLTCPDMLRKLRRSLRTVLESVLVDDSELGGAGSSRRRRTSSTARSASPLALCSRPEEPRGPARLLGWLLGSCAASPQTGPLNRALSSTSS
Summary of the method: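 Competition binding with 3.0 nM [3H]PGD2 and 8-20 μg HEK-hCRTH2 membrane protein in 50 mM Tris-HCl pH 7.4, 1 mM EDTA, 2 mM MnCl2, 1% Me2SO, 60 min at room temperature. Nonspecific binding defined with 10 μM PGD2; bound radioactivity counted after filtration.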

Row | Ki [nM] | Structure (SMILES)
1 | 2.1 to 20 | CO/N=C(/c1ccccn1)C1CCN(C(=O)c2ccc3nc(-c4ccccc4)c(CCCCC(=O)O)nc3c2)CC1 [compound 114, 7-[[4-[(E)-(methoxyimino)-2-pyridinylmethyl]-1-piperidinyl]carbonyl]-3-phenyl-2-quinoxalinepentanoic acid]
2 | 2.1 to 20 | N#CC1(c2ccccc2)CCN(C(=O)c2ccc3nc(-c4ccc(F)cc4)c(CCCCC(=O)O)nc3c2)CC1 [compound 128]
3 | 2.1 to 20 | C[C@H](NC(=O)c1ccc2nc(-c3ccc(C(F)(F)F)cc3)c(CCCCC(=O)O)nc2c1)c1ccccc1 [3W, 7-[[(1-(S)-phenylethyl)amino]carbonyl]-3-[4-(trifluoromethyl)phenyl]-2-quinoxalinepentanoic acid]
4 | 2.1 to 20 | O=C(O)CCCCc1nc2cc(C(=O)N3CCCC(c4ccccc4)C3)ccc2nc1-c1ccc(Cl)cc1 (stereo not shown) [compound 176, 3-(4-chlorophenyl)-7-[(3-phenyl-1-piperidinyl)carbonyl]-2-quinoxalinepentanoic acid]
5 | 2.1 to 20 | O=C(O)CCCCc1nc2cc(C(=O)N[C@@H](c3ccc(F)cc3)C(F)(F)F)ccc2nc1-c1ccc(F)cc1 [compound 138, 3-(4-fluorophenyl)-7-[[[2,2,2-trifluoro-1(S)-(4-fluorophenyl)ethyl]amino]carbonyl]-2-quinoxalinepentanoic acid]
6 | 0.1 to 2 | O=C(O)CCCCc1nc2cc(C(=O)N[C@@H]3CCCc4cc(Cl)ccc43)ccc2nc1-c1ccc(Cl)cc1 [compound 186, 3-(4-chlorophenyl)-7-[[(6-chloro-1,2,3,4-tetrahydro-1(R)-naphthalenyl)amino]carbonyl]-2-quinoxalinepentanoic acid]
7 | 2.1 to 20 | C[C@H](NC(=O)c1ccc2nc(-c3ccccc3)c(CCCCC(=O)O)nc2c1)c1ccc(F)cc1 [compound 235, 7-[[[1(S)-(4-fluorophenyl)ethyl]amino]carbonyl]-3-phenyl-2-quinoxalinepentanoic acid]
8 | 0.1 to 2 | O=C(O)CCCCc1nc2cc(C(=O)NCc3ccccc3)ccc2nc1-c1ccccc1 [15Z, 5-[7-(benzylcarbamoyl)-3-phenylquinoxalin-2-yl]pentanoic acid]
9 | 0.1 to 2 | O=C(O)CCCCc1nc2cc(C(=O)NC3Cc4ccccc4C3)ccc2nc1-c1ccc(C(F)(F)F)cc1 [compound 150, 7-[[(2,3-dihydro-1H-inden-2-yl)amino]carbonyl]-3-[4-(trifluoromethyl)phenyl]-2-quinoxalinepentanoic acid]
10 | 20.1 to 200 | NC(=O)c1ccc2nc(-c3ccccc3)c(CCCCC(=O)O)nc2c1 [compound 144, 5-(7-carbamoyl-3-phenylquinoxalin-2-yl)pentanoic acid]
11 | 20.1 to 200 | C[C@H](NC(=O)c1ccc2nc(-c3ccc(C(F)(F)F)cc3)c(CCCCC(=O)O)nc2c1)c1ccccn1 [compound 146, 7-[[[1(S)-(2-pyridinyl)ethyl]amino]carbonyl]-3-[4-(trifluoromethyl)phenyl]-2-quinoxalinepentanoic acid]
12 | 0.1 to 2 | O=C(O)CCCCc1nc2cc(C(=O)NCc3ccc(OC(F)(F)F)cc3)ccc2nc1-c1ccc(Cl)cc1 [16P, 3-(4-chlorophenyl)-7-[[[[4-(trifluoromethoxy)phenyl]methyl]amino]carbonyl]-2-quinoxalinepentanoic acid]
13 | 2.1 to 20 | CON(C)C(=O)c1ccc2nc(-c3ccccc3)c(CCCCC(=O)O)nc2c1 [15BJ, 5-{7-[methoxy(methyl)carbamoyl]-3-phenylquinoxalin-2-yl}pentanoic acid]
14 | 2.1 to 20 | COc1ccc([C@H](C)NC(=O)c2ccc3nc(-c4ccc(Cl)cc4)c(CCC(C)CC(=O)O)nc3c2)cc1 (stereo partly drawn) [17P, 3-(4-chlorophenyl)-7-[[[1(S)-(4-methoxyphenyl)ethyl]amino]carbonyl]-beta-methyl-2-quinoxaline pentanoic acid]

same assay, conditions: [3H]PGD2 binding, values in text

Row | Ki [nM] | Structure (SMILES)
15 | 118 | NC(=O)c1ccc2nc(-c3ccccc3)c(CCCCC(=O)O)nc2c1 [compound 144, 5-(7-carbamoyl-3-phenylquinoxalin-2-yl)pentanoic acid]
16 | 132 | C[C@H](NC(=O)c1ccc2nc(-c3ccc(C(F)(F)F)cc3)c(CCCCC(=O)O)nc2c1)c1ccccn1 [compound 146, 7-[[[1(S)-(2-pyridinyl)ethyl]amino]carbonyl]-3-[4-(trifluoromethyl)phenyl]-2-quinoxalinepentanoic acid]

same assay, conditions: [3H]PGD2 competition, Table B

Row | Structure (SMILES) | Ki [nM]
17 | C[C@@H](CCc1nc2cc(C(=O)N[C@@H](C)c3ccc(F)cc3)ccc2nc1-c1ccccc1)CC(=O)O [compound 288, (S)-5-(7-(((S)-1-(4-fluorophenyl)ethyl)carbamoyl)-3-3-phenylquinoxalin-2-yl)-3-methylpentanoic acid] | 20.1 to 200
18 | O=C(N[C@@H]1CCCc2cc(F)ccc21)c1ccc2nc(-c3ccc(F)cc3)c(CC[C@@H]3C[C@H]3C(=O)O)nc2c1 [compound 263, (1R,2R)-2-(2-(7-(((R)-6-fluoro-1,2,3,4-tetrahydronaphthalen-l-yl)carbamoyl)-3-(4-fluorophenyl)quinoxalin-2-yl)ethyl)cyclopropanecarboxylic acid] | 2.1 to 20
19 | O=C(O)CCCCc1nc2cc(C(=O)N3CCC4(CC3)CNC(=O)c3ccccc34)ccc2nc1-c1ccccc1 [compound 298, 5-(7-(i-oxo-2,3-dihydro-1H-spiro[isoquinoline-4,4′-piperidin]-1′-ylcarbonyl)-3-phenylquinoxalin-2-yl)pentanoic acid] | 2.1 to 20

Continued, values first:

Row | Ki [nM] | Structure (SMILES)
20 | 2.1 to 20 | O=C(N[C@@H]1CCCc2cc(Cl)ccc21)c1ccc2nc(-c3ccccc3)c(CCCC(F)(F)C(=O)O)nc2c1 [compound 467, (R)-5-(7-((6-chloro-1,2,3,4-tetrahydronaphthalen-1-yl)carbamoyl)-3-phenylquinoxalin-2-yl)-2,2-difluoropentanoic acid]
21 | 20.1 to 200 | CCc1nnc2n1CCN(C(=O)c1ccc3nc(-c4ccc(Cl)cc4)c(CCCCC(=O)O)nc3c1)C2 [compound 673, 5-(3-(4-chlorophenyl)-7-(3-ethyl-5,6,7,8-tetrahydro-[1,2,4]triazolo[4,3-a]pyrazine-7-carbonyl)quinoxalin-2-yl)pentanoic acid]
22 | 20.1 to 200 | CN(C(=O)c1ccc2nc(-c3ccccc3)c(CCCCC(=O)O)nc2c1)[C@@H]1CCCc2ccccc21 [compound 378, (R)-5-(7-(methyl(1,2,3,4-tetrahydronaphthalen-1-yl)carbamoyl)-3-phenylquinoxalin-2-yl)pentanoic acid]
23 | 201 to 700 | O=C(N[C@@H]1CCCc2ccccc21)c1ccc2nc(-c3ccccc3)c(CCCC(O)C(=O)O)nc2c1 (stereo partly drawn) [compound 706, 2-hydroxy-5-(3-phenyl-7-(((R)-1,2,3,4-tetrahydronaphthalen-1-yl)carbamoyl)quinoxalin-2-yl)pentanoic acid]
24 | 20.1 to 200 | O=C(O)CCCCc1nc2cc(C(=O)N3Cc4ccccc4C3)ccc2nc1-c1ccccc1 [compound 307, 5-(7-(isoindoline-2-carbonyl)-3-phenylquinoxalin-2-yl)pentanoic acid]
25 | 0.1 to 2 | O=C(O)CCCCc1nc2cc(C(=O)N3CCC4(CC3)NC(=O)Cc3ccccc34)ccc2nc1-c1ccc(Cl)cc1 [compound 567]
26 | 2.1 to 20 | C[C@H](NC(=O)c1ccc2nc(-c3ccccc3)c(CCCCC(=O)O)nc2c1)c1cccc2ncccc12 [compound 640, (S)-5-(3-phenyl-7-((1-(quinolin-5-yl)ethyl)carbamoyl)quinoxalin-2-yl)pentanoic acid]
27 | 2.1 to 20 | C[C@@H]1CN(c2ccc(Cl)cc2)CCN1C(=O)c1ccc2nc(-c3ccc(Cl)cc3)c(CCCCC(=O)O)nc2c1 [compound 539, (R)-5-(3-(4-chlorophenyl)-7-(4-(4-chlorophenyl)-2-methylpiperazine-1-carbonyl)quinoxalin-2-yl)pentanoic acid]
28 | 2.1 to 20 | C[C@@H](CCCc1nc2cc(C(=O)N[C@@H]3CCOc4ccccc43)ccc2nc1-c1ccc(F)cc1)C(=O)O [compound 520, (S)-5-(7-((R)-chroman-4-ylcarbamoyl)-3-(4-fluorophenyl)quinoxalin-2-yl)-2-methylpentanoic acid]
29 | 2.1 to 20 | O=C(O)CCCCc1nc2cc(C(=O)N3CCN(c4c(Cl)cncc4Cl)CC3)ccc2nc1-c1ccccc1 [compound 304, 5-(7-(4-(3,5-dichloropyridin-4-yl)piperazine-1-carbonyl)-3-phenylquinoxalin-2-yl)pentanoic acid]
30 | 2.1 to 20 | C[C@H](NC(=O)c1ccc2nc(-c3ccc(F)cc3)c(CCCCC(=O)O)nc2c1)c1ccc(F)c2ccccc12 [compound 571, (S)-5-(7-((1-(4-fluoronaphthalen-1-yl)ethyl)carbamoyl)-3-(4-fluorophenyl)quinoxalin-2-yl)pentanoic acid]
31 | 201 to 700 | O=C(O)CCCCc1nc2cc(C(=O)N3CCN(c4ccncc4)CC3)ccc2nc1-c1ccc(Cl)cc1 [compound 594, 5-(3-(4-chlorophenyl)-7-(4-(pyridin-4-yl)piperazine-l-carbonyl)quinoxalin-2-yl)pentanoic acid]
32 | 2.1 to 20 | O=C(O)CCCCc1nc2cc(C(=O)N3CCN(c4ccccn4)CC3)ccc2nc1-c1ccc(F)cc1 [compound 357, 5-(3-(4-fluorophenyl)-7-(4-(pyridin-2-yl)piperazine-1-carbonyl)quinoxalin-2-yl)pentanoic acid]
33 | 2.1 to 20 | O=C(O)CCCCc1nc2cc(C(=O)N3CCN(c4ccccc4Cl)CC3)ccc2nc1-c1ccc(F)cc1 [compound 364, 5-(7-(4-(2-chlorophenyl)piperazine-1-carbonyl)-3-(4-fluorophenyl)quinoxalin-2-yl)pentanoic acid]
34 | 2.1 to 20 | COc1ccc(N2CCN(C(=O)c3ccc4nc(-c5ccc(Cl)cc5)c(CCCCC(=O)O)nc4c3)CC2)cc1 [compound 622, 5-(3-(4-chlorophenyl)-7-(4-(4-methoxyphenyl)piperazine-1-carbonyl)quinoxalin-2-yl)pentanoic acid]
